Format in all cases: in vivo, rat
Data set [1] in a line: Serum glucose level of treated rats. The following applies: for Serum Glucose (after 27 days): after 27 days of treatment, mean ± std. dev. The procedure: (§1) In the determination, the following groups of rats were employed, each group consisting of ten rats.
(§2) Diabetic rats were CD rats in which diabetes was induced by the injection of streptozotocin into the femoral vein at a dose of 60 mg/kg. Hyperglycemia was confirmed by measuring glucose levels in blood obtained by orbital bleeding. (A standard medical technique for obtaining blood form the orbital sinus is described in "Laboratory Animal Medicine" edited by J. G. Fox et al., Academic Press, Inc., Orlando, Fla., 1984.)
(§3) Dosing was initiated with cyclopeptide compound four days after injection of streptozotocin to induce diabetes in the diabetic rats. Dosing was carried out by administering the cyclopeptide compound in the drinking water at a dose of 50 μg/rat/day.
(§4) The rats were housed two to a box and fed standard rat food and water ad libitum. Blood pressure was measured indirectly with a photoelectric system with a tail cuff containing a built in sensor (Harvard Biosciences,Cambridge, MA). The instrument was calibrated on each day of use with a sphygmomanometer. Six to eight recordings were made for each rat.
(§5) At the beginning of the experiment, the mean weights of the CD rats were 160 grams and the SH rats were 220 grams. The body weights after 38 days may be seen in Table 1. The serum glucose level, measured after 27 days of treatment also may be seen in Table 1.

Data set [2] relates to spontaneously hypertensive (SH) rats. Briefly: Systolic blood pressure (tail cuff) in spontaneously hypertensive rats. To be noted: treated SH rats. As to the method:
as §1
Group 4 Spontaneously hypertensive (SH) rats
Group 5 Spontaneously hypertensive rats treated with cyclopeptide compound
SH rats were commercially available spontaneously hypertensive rats.
as §3, §4
The blood pressure measurements of treated and untreated spontaneously hypertensive rats compared with normal rats may be seen in FIG. 2.
FIG. 2 is a graph in which the systolic blood pressure of normal, spontaneously hypertensive and treated spontaneously hypertensive rats are plotted against a period of time in days.

Data set [3] is described as follows: Body weight of treated rats. The following applies: for Body Weight (after 38 days): mean ± std. dev. The procedure: as §1, §2, §3, §4, §5
The subject of a further data set is diabetic rats. Briefly: Systolic blood pressure (tail cuff) in streptozotocin-diabetic rats. The following applies: treated diabetic rats. As to the method: as §1
Group 3 Diabetic rats treated with cyclopeptide compound
Normal rats were commercially available laboratory rats identified as CD rats.
as §2
Dosing was initiated with cyclopeptide compound four days after injection of streptozotocin to induce diabetes in the diabetic rats. […]
as §4
Blood pressure measurements were initated 8 days following injection of streptozotocin (4 days after start of treatment).
FIG. 1 is a graph in which the blood pressures of normal, diabetic and treated diabetic rats are plotted against a period of time in days. (Each point is the mean of 7 to 10 rats±standard deviation.)

Where [4] appears, read: diabetic rat or spontaneously hypertensive rat.

Regarding `CC(C)[C@@H]1NC(=O)[C@H](CCCCN)NC(=O)[C@@H](Cc2c[nH]c3ccccc23)NC(=O)[C@H](Cc2ccc(O)cc2)NC(=O)[C@H](C)N(C)C(=O)[C@H](Cc2ccccc2)NC1=O` [Compound IA, cyclo-(N-MeAla-Tyr-(D)Trp-Lys-Val-Phe)], the “Serum Glucose (after 27 days)” value was found to be 352 ± 52 mg % in data set [1] (Diabetic CD rats (streptozotocin) + Compound IA in drinking water) and 90 ± 10 mg % in data set [1] (SH rats + Compound IA in drinking water, P = <0.05 relative to normal CD). Also, the “effect on serum glucose level (in words)” value in data set [1] (setting [4]) is recorded as “no significant effect”. The “reduction in systolic blood pressure” value in data set [2] (10th day of treatment, P=<0.02) amounted to 11%. The “inhibition of blood pressure after the 10th day” value in data set [2] (after 10th day, even after increasing dose to 200 μg/rat/day on 40th day) is “no further inhibition was evident”. The “Body Weight (after 38 days)” value in data set [3] (Diabetic CD rats (streptozotocin) + Compound IA in drinking water, 50 μg/rat/day, doubled to 100 μg/rat/day on 21st day) was 281 ± 63 gms; in data set [3] (SH rats + Compound IA in drinking water), 285 ± 17 gms. Besides, in data set [3] (setting [4]), the “effect on body weight (in words)” value is “no significant effect”. Besides, the “reduction in blood pressure” value in the data set on diabetic rats (33rd day of treatment, 100 μg/rat/day from 21st day, P=<0.005) turned out to be 18%; with diabetic rats (38th day of treatment, 100 μg/rat/day from 21st day, P=<0.001), 21%; in the data set on diabetic rats (after 17 days of treatment, 50 μg/rat/day in drinking water, P=<0.05), 14%.

The record behind these values is patent US4798821A, “Antihypertensive therapy for diabetics” (Merck & Co., Inc., priority 1987, dated 1989).
